The text below walks through data of patent US8642621B2, “(4-phenyl-piperidin-1-yl)-[5-(1H-pyrazol-4-yl)-thiophen-3-yl]-methanone compounds and their use” (The University Of Edinburgh, priority 2009, dated 2014).

Molecules are shown by their SMILES. Read-outs that look alike come from different tables or passages of the source. Bounds are passed on as bounds.

One data set has as its target T1, human 11β-HSD1 enzyme (Homo sapiens, UniProt P28845).
T1 construct: stably transfected with a construct containing the full-length gene coding for the human 11β-HSD1 enzyme; expressed in transfected cells; HEK293/11β-HSD1 cells)
The data set can be described thus: Cellular in vitro 11β-HSD1 enzyme inhibition assay (SPA, HEK293/11β-HSD1 cells). The class given is cell-based. The protocol: Cellular In Vitro 11β-HSD1 Enzyme Inhibition Assay
Compounds were assessed by a Scintillation Proximity Assay (SPA) performed according to the following protocol:
HEK293 cells were stably transfected with a construct containing the full-length gene coding for the human 11β-HSD1 enzyme to create HEK293/11β-HSD1 cells. Cells were routinely cultured in DMEM containing 10% calf foetal serum, 1% glutamine, and 1% penicillin and streptomycin. Prior to assay, cells were plated at 2×10^4 cells/well in 96-well poly-D-Lys coated flat-bottomed microplates and incubated in 5% CO2, 95% O2 at 37° C. for 24 hours. The media in each well was removed immediately before assay.
Compounds to be tested were dissolved in DMSO at 10 mM and serially diluted into water containing 10% DMSO. Diluted compounds at a volume of 10 μL were added to wells of a 96-well V-bottomed microplate. A solution of DMEM, 1% glutamine, 1% penicillin and streptomycin, and 22 nM tritiated cortisone was prepared and 90 μL added to each well of the assay plate. This solution (100 μL/well) was transferred to the plate containing the cells. The plate was then incubated in 5% CO2, 95% O2 at 37° C. for 2 hours.
Following this incubation, 50 μL of the assay solution was transferred to each well of a 96-well scintillation microplate. A mixture consisting of anti-mouse YSi SPA beads, pre-mixed with anti-cortisol antibody in assay buffer (50 mM Tris.HCl, pH 7.0; 300 mM NaCl; 1 mM EDTA, 5% glycerol) was prepared and 50 μL added to each well of the scintillation microplate. An adhesive strip was applied to the microplate and the plate gently shaken for at least 2 hours at room temperature, and then spun briefly on a low speed centrifuge. The plate was read on a scintillation counter suitable for 96-well microplates. For the calculation of percentage inhibition, a series of wells were added to the plate that represented the assay maximum and the assay minimum: one set that contained substrate without cells (minimum) and another set that contained substrate and cells without any compound (maximum).
The calculation of median inhibitory concentration (IC50) values for the compounds was performed using GraphPad Prism® software. Dose-response curves for each compound were plotted as fractional inhibition and data fitted to the four parameter logistic equation.

The nature of data set [1]: In vitro human liver microsomal stability assay. The class given is in vitro ADME. The note with it: human liver microsomes. The protocol: In Vitro Human Liver Microsomal Stability Assay
To predict in vivo metabolism of compounds, the stability of compounds incubated with human liver microsomes in vitro was determined. Human liver microsome preparations were stored at −80° C. and thawed on ice prior to use. The thawed microsomes were diluted to a concentration of 2 mg/mL in 50 mM sodium phosphate, pH 7.4. Reference and test compounds were prepared as 10 mM stocks in 100% DMSO and diluted to 1 mM in acetonitrile before use. Each compound was tested in triplicate as follows:
4 μL of test or reference compound was added to a well of a 24-well microplate and 0.5 mL of 4 mM NADPH added. The plate was then transferred to a shaker for 10 minutes at room temperature. 30 μL of the compound/NADPH solution was transferred to the well of a 96-well microplate and incubated at 37° C. for 5 minutes. 30 μL of human liver microsomes (pre-incubated at 37° C. for 5 minutes) was added to the well containing the compound/NADPH solution and the plate incubated for the selected period of time (typically 0 or 30 minutes). The reaction was stopped by adding 60 μL of ice cold […] trichloroacetic acid. The plate was centrifuged at 1000 rpm for 5 minutes at room temperature and the supernatant transferred to the well of a new 96-well v-bottomed microplate for mass spectrometric analysis.
Samples were analyzed by TSQ Quantum Discovery Tandem Mass Spectrometer and Surveyor Liquid Chromatogram (Thermo, Hemel-Hempstead, UK). 10 μL of each sample was injected in a mobile phase consisting of 60%:40% methanol:5 mM ammonium acetate at a flow rate of 0.5 mL/minute. The column used was a BDS hypersil, C18, 50×2.1 mm with a 5 μm particle size.
Each compound was tuned with a spray voltage of 3000 V and a capillary temperature of 300° C. and values for tube lens, CID and product ions were determined.
The peak area for each compound was measured in triplicate for the 0 and 30 minute samples and the average of each was reported. The percentage remaining after 30 minutes was calculated as the average peak area of the sample after 30 minutes divided by the average peak area at 0 minutes. The RSD was 10% or lower for each compound.

Setting [2] is: read-out: IC50 for 11β-HSD1 (HEK293).

T1 sequence (P28845 whole entry): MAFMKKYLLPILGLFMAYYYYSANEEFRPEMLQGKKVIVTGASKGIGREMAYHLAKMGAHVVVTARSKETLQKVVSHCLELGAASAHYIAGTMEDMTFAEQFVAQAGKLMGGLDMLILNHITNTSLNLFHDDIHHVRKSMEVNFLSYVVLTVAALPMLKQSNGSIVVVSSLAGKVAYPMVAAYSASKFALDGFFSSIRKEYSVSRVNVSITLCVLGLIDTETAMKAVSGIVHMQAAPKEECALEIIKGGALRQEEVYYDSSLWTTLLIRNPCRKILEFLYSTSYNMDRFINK

In the case of `O=C(c1csc(-c2cn[nH]c2)c1)N1CCC(O)(c2cccc(C(F)(F)F)c2)CC1` [AA-03], the IC50 on human 11β-HSD1 enzyme (setting [2]) was 500 to 1000 nM.

For the molecule `O=C(c1csc(-c2cn[nH]c2)c1)N1CCC(O)(c2ccc(F)cc2)CC1` [AA-05], the “% Parent Remaining at 30 min” value in data set [1] was “+++ (61-100% +++)”. Besides, on human 11β-HSD1 enzyme (setting [2]), the IC50 is not above 500 nM.

In the case of `O=C(c1csc(-c2cn[nH]c2)c1)N1CCC(O)(c2ccc(Cl)cc2F)CC1` [AA-07], the “% Parent Remaining at 30 min” value in data set [1] is “+++ (61-100% +++)”. Moreover, at human 11β-HSD1 enzyme (setting [2]), the IC50 is not above 500 nM.

Take `O=C(c1csc(-c2cn[nH]c2)c1)N1CCC(O)(c2ccc(F)cc2F)CC1` [AA-09]: the “% Parent Remaining at 30 min” value in data set [1] is recorded as “+++ (61-100% +++)”. Besides, the IC50 at human 11β-HSD1 enzyme (setting [2]) was not above 500 nM.

Consider `O=C(c1csc(-c2cn[nH]c2)c1)N1CCC(O)(c2ccccc2O)CC1` [AA-10], for which the IC50 at human 11β-HSD1 enzyme (setting [2]) is 1000 to 10000 nM.

In the case of `O=C(c1csc(-c2cn[nH]c2)c1)N1CCC(O)(c2ccc(Cl)c(Cl)c2)CC1` [AA-11], on human 11β-HSD1 enzyme (setting [2]), the IC50 was not above 500 nM.

Turning to `Cc1ccccc1C1(O)CCN(C(=O)c2csc(-c3cn[nH]c3)c2)CC1` [AA-13], the IC50 at human 11β-HSD1 enzyme (setting [2]) is not above 500 nM.

Take `O=C(c1csc(-c2cn[nH]c2)c1)N1CCC(O)(c2ccccc2C(F)(F)F)CC1` [AA-14]: the IC50 at human 11β-HSD1 enzyme (setting [2]) is not above 500 nM.

For the molecule `CC1(c2ccccc2)CCN(C(=O)c2csc(-c3cn[nH]c3)c2)CC1` [AA-16], in data set [1], the “% Parent Remaining at 30 min” value is “+ (0-30% +)”. For the same molecule, the IC50 at human 11β-HSD1 enzyme (setting [2]) was not above 500 nM.

With `O=C(c1csc(-c2cn[nH]c2)c1)N1CCC(CO)(c2ccccc2)CC1` [AA-19], the IC50 on human 11β-HSD1 enzyme (setting [2]) was 1000 to 10000 nM.

Molecule `N#CC1(c2ccccc2)CCN(C(=O)c2csc(-c3cn[nH]c3)c2)CC1` [AA-20] displayed an IC50 at human 11β-HSD1 enzyme of 1000 to 10000 nM.

For the molecule `O=C(c1csc(-c2cn[nH]c2)c1)N1CCC(O)(c2cccc(Cl)c2Cl)CC1` [AA-21], the IC50 on human 11β-HSD1 enzyme (setting [2]) is not above 500 nM.

Turning to `O=C(c1csc(-c2cn[nH]c2)c1)N1CCC(O)(c2c(F)cccc2Cl)CC1` [AA-23], the IC50 at human 11β-HSD1 enzyme (setting [2]) was not above 500 nM.

As to `O=C(c1csc(-c2cn[nH]c2)c1)N1CCC(O)(c2ccc(Cl)cc2Cl)CC1` [AA-24], the IC50 at human 11β-HSD1 enzyme (setting [2]) was not above 500 nM.

Turning to `COc1ccccc1C1(O)CC2CCC(C1)N2C(=O)c1csc(-c2cn[nH]c2)c1` (stereo not shown) [AA-25], at human 11β-HSD1 enzyme (setting [2]), the IC50 was not above 500 nM.

Consider `O=C(c1csc(-c2cn[nH]c2)c1)N1CCC(O)(c2cc(F)ccc2Cl)CC1` [AA-26], for which the IC50 on human 11β-HSD1 enzyme (setting [2]) is not above 500 nM.

In the case of `O=C(c1csc(-c2cn[nH]c2)c1)N1CCC(O)(c2c(Cl)cccc2Cl)CC1` [AA-27], the IC50 on human 11β-HSD1 enzyme (setting [2]) was not above 500 nM.

For `O=C(c1csc(-c2cn[nH]c2)c1)N1CCC(O)(c2c(F)cccc2F)CC1` [AA-28], the IC50 on human 11β-HSD1 enzyme (setting [2]) was not above 500 nM.

Turning to `Cc1n[nH]cc1-c1cc(C(=O)N2CCC(O)(c3ccccc3Cl)CC2)cs1` [AA-29], the IC50 at human 11β-HSD1 enzyme (setting [2]) was not above 500 nM.

With `O=C(c1csc(-c2cn[nH]c2)c1)N1CCC(O)(c2cc(Cl)ccc2Cl)CC1` [AA-31], at human 11β-HSD1 enzyme (setting [2]), the IC50 is not above 500 nM.

Take `O=C(c1csc(-c2cn[nH]c2)c1)N1CC2CCC(C1)C2(O)c1ccccc1` (stereo not shown) [AA-32]: the IC50 on human 11β-HSD1 enzyme (setting [2]) was 500 to 1000 nM.

With `CC1(c2ccccc2Cl)CCN(C(=O)c2csc(-c3cn[nH]c3)c2)CC1` [AA-34], the IC50 at human 11β-HSD1 enzyme (setting [2]) is not above 500 nM.

In the case of `O=C(c1csc(-c2cn[nH]c2)c1)N1CCC(F)(c2ccc(Cl)cc2)CC1` [AA-35], the IC50 on human 11β-HSD1 enzyme (setting [2]) was 500 to 1000 nM.

Turning to `O=C(c1csc(-c2cn[nH]c2)c1)N1CCC(F)(c2ccc(Cl)cc2Cl)CC1` [AA-38], the IC50 on human 11β-HSD1 enzyme (setting [2]) was not above 500 nM.

For `O=C(c1csc(-c2cn[nH]c2)c1)N1CC2CCC(C1)C2(F)c1ccccc1` (stereo not shown) [AA-39, (8-Fluoro-8-phenyl-3-aza-bicyclo[3.2.1]oct-3-yl)-[5-(1H-pyrazol-4-yl)-thiophen-3-yl]methanone], the IC50 at human 11β-HSD1 enzyme (setting [2]) was 1000 to 10000 nM.

Regarding `Cc1cccc(F)c1C1(F)CCN(C(=O)c2csc(-c3cn[nH]c3)c2)CC1` [AA-40], the IC50 at human 11β-HSD1 enzyme (setting [2]) is not above 500 nM.

On to `N#CC1(c2ccccc2Cl)CCN(C(=O)c2csc(-c3cn[nH]c3)c2)CC1` [AA-41], for which the IC50 on human 11β-HSD1 enzyme is 1000 to 10000 nM.

As to `O=C(c1csc(-c2cn[nH]c2)c1)N1CCC(c2ccc(F)cc2)CC1` [BB-01], the “% Parent Remaining at 30 min” value in data set [1] was “+++ (61-100% +++)”. Moreover, the IC50 on human 11β-HSD1 enzyme (setting [2]) is 500 to 1000 nM.

In the case of `N#Cc1ccc(C2CCN(C(=O)c3csc(-c4cn[nH]c4)c3)CC2)cc1` [BB-02], at human 11β-HSD1 enzyme (setting [2]), the IC50 was in the range of 1000 to 10000 nM.

Consider `N#Cc1ccccc1C1CCN(C(=O)c2csc(-c3cn[nH]c3)c2)CC1` [BB-04], for which, in data set [1], the “% Parent Remaining at 30 min” value was “++ (31-60% ++)”. Moreover, the IC50 at human 11β-HSD1 enzyme (setting [2]) was not above 500 nM.

For `O=C(c1csc(-c2cn[nH]c2)c1)N1CCC(c2cccc(F)c2)CC1` [BB-05], the “% Parent Remaining at 30 min” value in data set [1] is listed as “++ (31-60% ++)”. Further, the IC50 at human 11β-HSD1 enzyme (setting [2]) was not above 500 nM.

As to `O=C(c1csc(-c2cn[nH]c2)c1)N1CCC(c2ccc(Cl)cc2)CC1` [BB-06], in data set [1], the “% Parent Remaining at 30 min” value is reported as “+++ (61-100% +++)”. The IC50 on human 11β-HSD1 enzyme (setting [2]) fell in the range of 500 to 1000 nM.

As for `O=C(c1csc(-c2cn[nH]c2)c1)N1CCC(c2ccccc2F)CC1` [BB-07], the “% Parent Remaining at 30 min” value in data set [1] was “+ (0-30% +)”. The IC50 on human 11β-HSD1 enzyme (setting [2]) is not above 500 nM.

In the case of `O=C(c1csc(-c2cn[nH]c2)c1)N1CCC(c2ccccc2OC(F)F)CC1` [BB-09], the IC50 on human 11β-HSD1 enzyme (setting [2]) is not above 500 nM.

Take `O=C(c1csc(-c2cn[nH]c2)c1)N1CCC(c2ccc(F)cc2F)CC1` [BB-10]: on human 11β-HSD1 enzyme (setting [2]), the IC50 lay within 500 to 1000 nM.

As to `Cc1ccccc1C1CCN(C(=O)c2csc(-c3cn[nH]c3)c2)CC1` [BB-12], the IC50 on human 11β-HSD1 enzyme (setting [2]) was not above 500 nM.

With `O=C(c1csc(-c2cn[nH]c2)c1)N1CCC(c2ccccc2C(F)(F)F)CC1` [BB-13], in data set [1], the “% Parent Remaining at 30 min” value was “+++ (61-100% +++)”. Further, the IC50 at human 11β-HSD1 enzyme (setting [2]) was in the range of 500 to 1000 nM.

`O=C(c1csc(-c2cn[nH]c2)c1)N1CCC(c2ccccc2CO)CC1` [BB-14]: on human 11β-HSD1 enzyme (setting [2]), the IC50 was not above 500 nM.

In the case of `O=C(c1csc(-c2cn[nH]c2)c1)N1CCC(c2ccccc2Cl)CC1` [BB-15], the IC50 on human 11β-HSD1 enzyme (setting [2]) was not above 500 nM.
